From ChEMBL document CHEMBL1201862, “PubChem BioAssay data set” (2004)
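Method: 48-hour compound exposure of cells in 96-well plates, five concentrations, linear interpolation of endpoints. At the GI50, growth is halved.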 The source made the active and inactive calls. Cut-off read from the data, not from the text of the source: active = GI50 up to about 1.1 µM and inactive = higher.

Columns and labels:
Assay in all cases: inhibition of tumour cell growth, NCI panel, 48 h
SW-620 = test system: SW-620
ACHN = test system: ACHN
CAKI-1 = test system: CAKI-1
NCI-H23 = test system: NCI-H23
LOX IMVI = test system: LOX IMVI
U-251 = test system: U-251
OVCAR-8 = test system: OVCAR-8
NCI-H460 = test system: NCI-H460
HCT-15 = test system: HCT-15
RXF 631 = test system: RXF 631
PC-3 = test system: PC-3
HCT-116 = test system: HCT-116
IGROV-1 = test system: IGROV-1
NCI-H522 = test system: NCI-H522
A498 = test system: A498
786-0 = test system: 786-0
UACC-62 = test system: UACC-62
BT-549 = test system: BT-549
HOP-92 = test system: HOP-92
UACC-257 = test system: UACC-257
SK-MEL-2 = test system: SK-MEL-2
DLD-1 = test system: DLD-1
SF-268 = test system: SF-268
HCC 2998 = test system: HCC 2998
HL-60 = test system: HL-60
COLO 205 = test system: COLO 205
SN12C = test system: SN12C
KM12 = test system: KM12
HOP-18 = test system: HOP-18
SNB-78 = test system: SNB-78
CCRF-CEM = test system: CCRF-CEM
HT-29 = test system: HT-29
SF-539 = test system: SF-539
MOLT-4 = test system: MOLT-4
KM-20L2 = test system: KM-20L2
NCI-H226 = test system: NCI-H226
K562 = test system: K562
SK-MEL-28 = test system: SK-MEL-28
MCF7 = test system: MCF7
A549 = test system: A549
SNB-19 = test system: SNB-19
SF-295 = test system: SF-295
TK-10 = test system: TK-10
HOP-62 = test system: HOP-62
M19-MEL = test system: M19-MEL
DMS-273 = test system: DMS-273
SK-OV-3 = test system: SK-OV-3
Hs-578T = test system: Hs-578T
T47D = test system: T47D
SNB-75 = test system: SNB-75
SK-MEL-5 = test system: SK-MEL-5
RXF 393 = test system: RXF 393
M14 = test system: M14
OVCAR-5 = test system: OVCAR-5
LXFL 529 = test system: LXFL 529
RPMI-8226 = test system: RPMI-8226
OVCAR-4 = test system: OVCAR-4
OVCAR-3 = test system: OVCAR-3
MDA-N = test system: MDA-N
Malme-3M = test system: Malme-3M
MDA-MB-435 = test system: MDA-MB-435
DMS-114 = test system: DMS-114
MDA-MB-231 = test system: MDA-MB-231
SR = test system: SR
UO-31 = test system: UO-31
EKVX = test system: EKVX
XF498 = test system: XF498
NCI/ADR-RES = test system: NCI/ADR-RES
DU-145 = test system: DU-145

**Q.** How did the GI50 (SW-620) turn out when `NS(=O)(=O)c1ccc(NC(=O)c2cccc3cc4ccccc4nc23)cc1` was run?
**A.** 6.04 µM (inactive)

**Q.** And the GI50 (ACHN)?
**A.** 6.64 µM (inactive)

**Q.** What about the GI50 (CAKI-1) of the same compound?
**A.** 10.1 µM (inactive)

**Q.** And the GI50 (NCI-H23)?
**A.** 20.5 µM (inactive)

**Q.** What about the GI50 (LOX IMVI) of the same compound?
**A.** 6.14 µM (inactive)

**Q.** What about the GI50 (U-251) of the same compound?
**A.** 23.4 µM (inactive)

**Q.** And the GI50 (OVCAR-8)?
**A.** 6.3 µM (inactive)

**Q.** And the GI50 (NCI-H460)?
**A.** 5.02 µM (inactive)

**Q.** And the GI50 (HCT-15)?
**A.** 12.6 µM

**Q.** What about the GI50 (RXF 631) of the same compound?
**A.** 29.2 µM (inactive)

**Q.** And the GI50 (PC-3)?
**A.** 37.3 µM (inactive)

**Q.** What about the GI50 (HCT-116) of the same compound?
**A.** 4.69 µM (inactive)

**Q.** What about the GI50 (IGROV-1) of the same compound?
**A.** > 78.2 µM (inactive)

**Q.** What about the GI50 (NCI-H522) of the same compound?
**A.** 17.1 µM (inactive)

**Q.** What about the GI50 (A498) of the same compound?
**A.** > 43.7 µM (inactive)

**Q.** What about the GI50 (786-0) of the same compound?
**A.** 12.8 µM (inactive)

**Q.** And the GI50 (UACC-62)?
**A.** 66.5 µM (inactive)

**Q.** What about the GI50 (BT-549) of the same compound?
**A.** 42.4 µM (inactive)

**Q.** And the GI50 (HOP-92)?
**A.** 15.1 µM (inactive)

**Q.** And the GI50 (UACC-257)?
**A.** 71.4 µM (inactive)

**Q.** And the GI50 (SK-MEL-2)?
**A.** > 100 µM (inactive)

**Q.** What about the GI50 (DLD-1) of the same compound?
**A.** 17.1 µM (inactive)

**Q.** What about the GI50 (SF-268) of the same compound?
**A.** 56.9 µM (inactive)

**Q.** And the GI50 (HCC 2998)?
**A.** > 100 µM (inactive)

**Q.** And the GI50 (HL-60)?
**A.** 25.9 µM (inactive)

**Q.** And the GI50 (COLO 205)?
**A.** 12.2 µM (inactive)

**Q.** What about the GI50 (SN12C) of the same compound?
**A.** 20.8 µM (inactive)

**Q.** What about the GI50 (KM12) of the same compound?
**A.** 11.3 µM (inactive)

**Q.** What about the GI50 (HOP-18) of the same compound?
**A.** > 100 µM (inactive)

**Q.** And the GI50 (SNB-78)?
**A.** > 100 µM (inactive)

**Q.** What about the GI50 (CCRF-CEM) of the same compound?
**A.** 7.71 µM (inactive)

**Q.** And the GI50 (HT-29)?
**A.** 8.3 µM (inactive)

**Q.** What about the GI50 (SF-539) of the same compound?
**A.** 13.8 µM (inactive)

**Q.** What about the GI50 (MOLT-4) of the same compound?
**A.** 2.7 µM (inactive)

**Q.** And the GI50 (KM-20L2)?
**A.** 12.6 µM (inactive)

**Q.** And the GI50 (NCI-H226)?
**A.** 25.9 µM (inactive)

**Q.** What about the GI50 (K562) of the same compound?
**A.** 30.1 µM (inactive)

**Q.** And the GI50 (SK-MEL-28)?
**A.** > 91 µM (inactive)

**Q.** And the GI50 (MCF7)?
**A.** 6.68 µM (inactive)

**Q.** What about the GI50 (A549) of the same compound?
**A.** 10 µM (inactive)

**Q.** And the GI50 (SNB-19)?
**A.** 28.3 µM (inactive)

**Q.** What about the GI50 (SF-295) of the same compound?
**A.** 16.3 µM (inactive)

**Q.** And the GI50 (TK-10)?
**A.** 28.2 µM (inactive)

**Q.** What about the GI50 (HOP-62) of the same compound?
**A.** > 58.6 µM (inactive)

**Q.** What about the GI50 (M19-MEL) of the same compound?
**A.** 37.2 µM (inactive)

**Q.** What about the GI50 (DMS-273) of the same compound?
**A.** 9.44 µM (inactive)

**Q.** And the GI50 (SK-OV-3)?
**A.** > 88.7 µM (inactive)

**Q.** And the GI50 (Hs-578T)?
**A.** 8.53 µM (inactive)

**Q.** And the GI50 (T47D)?
**A.** 96.6 µM (inactive)

**Q.** What about the GI50 (SNB-75) of the same compound?
**A.** > 37.4 µM (inactive)

**Q.** What about the GI50 (SK-MEL-5) of the same compound?
**A.** 17.3 µM (inactive)

**Q.** What about the GI50 (RXF 393) of the same compound?
**A.** 17.7 µM (inactive)

**Q.** And the GI50 (M14)?
**A.** > 72.1 µM (inactive)

**Q.** What about the GI50 (OVCAR-5) of the same compound?
**A.** > 96.2 µM (inactive)

**Q.** And the GI50 (LXFL 529)?
**A.** 25 µM (inactive)

**Q.** What about the GI50 (RPMI-8226) of the same compound?
**A.** 8.32 µM (inactive)

**Q.** What about the GI50 (OVCAR-4) of the same compound?
**A.** 21 µM (inactive)

**Q.** What about the GI50 (OVCAR-3) of the same compound?
**A.** 46.6 µM (inactive)

**Q.** And the GI50 (MDA-N)?
**A.** 13 µM (inactive)

**Q.** And the GI50 (Malme-3M)?
**A.** 12.2 µM (inactive)

**Q.** What about the GI50 (MDA-MB-435) of the same compound?
**A.** 34.3 µM (inactive)

**Q.** What about the GI50 (DMS-114) of the same compound?
**A.** 97.7 µM (inactive)

**Q.** And the GI50 (MDA-MB-231)?
**A.** > 100 µM (inactive)

**Q.** What about the GI50 (SR) of the same compound?
**A.** 4.58 µM (inactive)

**Q.** What about the GI50 (UO-31) of the same compound?
**A.** 8.07 µM (inactive)

**Q.** And the GI50 (EKVX)?
**A.** > 100 µM (inactive)

**Q.** What about the GI50 (XF498) of the same compound?
**A.** 49.7 µM (inactive)

**Q.** And the GI50 (NCI/ADR-RES)?
**A.** 11.8 µM (inactive)

**Q.** What about the GI50 (DU-145) of the same compound?
**A.** > 100 µM (inactive)

**Q.** What does the source list for `NC1(C(=O)O)CCC(C(=O)O)CC1` (configuration not stated)?
**A.** GI50 (SW-620): > 100 µM (inactive); GI50 (ACHN): > 100 µM (inactive); GI50 (CAKI-1): > 100 µM (inactive); GI50 (NCI-H23): > 100 µM (inactive); GI50 (LOX IMVI): > 100 µM (inactive); GI50 (U-251): > 100 µM (inactive); GI50 (OVCAR-8): > 100 µM (inactive); GI50 (NCI-H460): > 100 µM (inactive); GI50 (RXF 631): > 100 µM (inactive); GI50 (HCT-116): > 100 µM (inactive); GI50 (IGROV-1): > 100 µM (inactive); GI50 (NCI-H522): > 100 µM (inactive); GI50 (A498): > 100 µM (inactive); GI50 (786-0): > 100 µM (inactive); GI50 (UACC-62): > 100 µM (inactive); GI50 (HOP-92): > 100 µM (inactive); GI50 (UACC-257): > 100 µM (inactive); GI50 (SK-MEL-2): > 100 µM (inactive); GI50 (DLD-1): > 100 µM (inactive); GI50 (SF-268): > 100 µM (inactive); GI50 (HCC 2998): > 100 µM (inactive); GI50 (HL-60): > 100 µM (inactive); GI50 (COLO 205): > 100 µM (inactive); GI50 (SN12C): > 100 µM (inactive); GI50 (KM12): > 100 µM (inactive); GI50 (HOP-18): > 100 µM (inactive); GI50 (SNB-78): > 100 µM (inactive); GI50 (CCRF-CEM): > 100 µM (inactive); GI50 (HT-29): > 100 µM (inactive); GI50 (SF-539): > 100 µM (inactive); GI50 (MOLT-4): > 100 µM (inactive); GI50 (KM-20L2): > 100 µM (inactive); GI50 (NCI-H226): > 100 µM (inactive); GI50 (K562): > 100 µM (inactive); GI50 (SK-MEL-28): > 100 µM (inactive); GI50 (A549): > 100 µM (inactive); GI50 (SNB-19): > 100 µM (inactive); GI50 (SF-295): > 100 µM (inactive); GI50 (TK-10): > 100 µM (inactive); GI50 (HOP-62): > 100 µM (inactive); GI50 (M19-MEL): > 100 µM (inactive); GI50 (DMS-273): > 100 µM (inactive); GI50 (SK-OV-3): > 100 µM (inactive); GI50 (SNB-75): > 100 µM (inactive); GI50 (SK-MEL-5): > 100 µM (inactive); GI50 (RXF 393): > 100 µM (inactive); GI50 (M14): > 100 µM (inactive); GI50 (OVCAR-5): > 100 µM (inactive); GI50 (LXFL 529): > 100 µM (inactive); GI50 (RPMI-8226): > 100 µM (inactive); GI50 (OVCAR-4): > 100 µM (inactive); GI50 (OVCAR-3): > 100 µM (inactive); GI50 (Malme-3M): > 100 µM (inactive); GI50 (DMS-114): > 100 µM (inactive); GI50 (SR): > 100 µM (inactive); GI50 (UO-31): > 100 µM (inactive); GI50 (EKVX): > 100 µM (inactive); GI50 (XF498): > 100 µM (inactive)
